# Reference: ChEMBL document CHEMBL1201862, “PubChem BioAssay data set” (2004)
# Calls of active or inactive are those of the source.
# Tests used:
# Beta-galactosidase = Beta-galactosidase (Escherichia coli, UniProt Q8VNN2); experiment: detection-enzyme interference by beta-gal modulators – biochemical, E. coli enzyme, set 3, artefact control for CCR6 antagonist project, dose response (AID 504712); assay type: functional
# Streptococcus = experiment: GAS UMAA2166 growth inhibition – luminescence, BacTiterGlo, counter-screen for streptokinase expression inhibitor project, dose response (AID 1915); assay type: functional, organism-based;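 note: potency for reduction of bacterial viability or growth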
# [1] = NIH3T3 cell viability loss – ATP luminescence, mouse fibroblasts, counter-screen, dose response (AID 2010); assay type: functional, cell-based;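 note: cells exposed to compound for about 90 hours before reading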
# [2] = viability of HCT116 lacking mutant beta-catenin – cell-based, human colon tumor, dose response (AID 1045); assay type: functional;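 note: HCT116 colon tumor cells with beta catenin knocked out; cells exposed to compound for 60 hours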
# Hexokinase HKDC1 = biological target: T1, Hexokinase HKDC1 (Homo sapiens, UniProt Q2TB90); experiment: inhibition of HKDC1 glucose phosphorylation – biochemical, W721R variant, dose response (AID 504729); assay type: functional
# T1 sequence (Q2TB90 whole entry): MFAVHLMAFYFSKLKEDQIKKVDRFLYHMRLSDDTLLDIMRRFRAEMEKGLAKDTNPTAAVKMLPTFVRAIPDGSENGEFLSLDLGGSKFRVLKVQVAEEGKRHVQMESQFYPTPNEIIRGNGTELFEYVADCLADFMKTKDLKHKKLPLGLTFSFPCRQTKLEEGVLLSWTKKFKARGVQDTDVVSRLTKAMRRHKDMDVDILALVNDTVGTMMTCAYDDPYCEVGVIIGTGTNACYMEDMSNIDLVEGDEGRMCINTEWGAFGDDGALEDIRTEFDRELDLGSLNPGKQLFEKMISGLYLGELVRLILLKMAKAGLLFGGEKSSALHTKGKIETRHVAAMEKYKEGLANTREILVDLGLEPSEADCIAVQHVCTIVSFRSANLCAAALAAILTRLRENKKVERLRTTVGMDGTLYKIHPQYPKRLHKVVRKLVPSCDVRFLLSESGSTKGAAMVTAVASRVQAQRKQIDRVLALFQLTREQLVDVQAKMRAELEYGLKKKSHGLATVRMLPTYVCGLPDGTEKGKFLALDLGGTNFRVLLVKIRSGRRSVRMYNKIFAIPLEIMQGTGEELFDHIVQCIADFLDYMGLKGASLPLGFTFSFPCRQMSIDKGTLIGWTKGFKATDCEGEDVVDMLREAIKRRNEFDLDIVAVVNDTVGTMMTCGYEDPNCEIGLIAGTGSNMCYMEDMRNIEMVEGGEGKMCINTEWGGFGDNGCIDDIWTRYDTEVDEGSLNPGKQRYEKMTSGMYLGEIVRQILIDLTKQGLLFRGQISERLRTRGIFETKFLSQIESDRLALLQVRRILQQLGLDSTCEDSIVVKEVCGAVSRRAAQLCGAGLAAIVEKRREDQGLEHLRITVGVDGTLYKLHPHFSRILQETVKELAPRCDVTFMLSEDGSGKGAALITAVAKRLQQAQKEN
# Nonstructural protein 1 = Nonstructural protein 1 (Influenza A virus, UniProt Q194T2); assay type: functional, Influenza A virus (A/California/07/2009(H1N1))
# INS1 = experiment: INS-1E survival protection against cytokine death – cell-based, luminescence, retest, dose response (AID 449756); assay type: functional; conditions: Rattus norvegicus;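 note: cell death triggered by IL-1 beta plus TNF-alpha plus IFN-gamma mixture; protective hits raise ATP signal compared with cytokine alone wells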
# [3] = fluconazole-exposed Candida albicans growth modulators – fluorescence, retest, confirmation (AID 2467); assay type: functional, cell-based
# [4] = biological target: Heat shock protein HSP 90-alpha (Homo sapiens, UniProt P07900); experiment: Luminescence-based dose response biochemical high throughput screening assay for inhibitors of the Heat Shock Protein 90 (HSP90). [Related pubchem assays: 1831 (Summary AID.), 1846 (Confirmation screen.), 1789 (Primary screen.)]
# [5] = Vero E6 cell cytotoxicity, dose response, cytotoxicity control for non-replicating M. tuberculosis project, secondary assay (AID 492998); assay type: functional, VeroE6; conditions: Vero C1008
# [6] = THP-1 cell cytotoxicity, dose response, cytotoxicity control for non-replicating M. tuberculosis project (AID 489025); assay type: functional
# [7] = biological target: T2, Heat shock factor protein 1 (Mus musculus, UniProt P38532); experiment: decrease of HSF1-responsive luciferase luminescence – cell-based, NIH3T3, dose retest, confirmation (AID 2382); assay type: functional;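 note: NIH3T3 fibroblasts with HSF1-driven luciferase reporter stressed by proteasome inhibitor MG132; luminescence from HSF1-driven luciferase expression after 8 hours of MG132 stress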
# T2 sequence (P38532 whole entry): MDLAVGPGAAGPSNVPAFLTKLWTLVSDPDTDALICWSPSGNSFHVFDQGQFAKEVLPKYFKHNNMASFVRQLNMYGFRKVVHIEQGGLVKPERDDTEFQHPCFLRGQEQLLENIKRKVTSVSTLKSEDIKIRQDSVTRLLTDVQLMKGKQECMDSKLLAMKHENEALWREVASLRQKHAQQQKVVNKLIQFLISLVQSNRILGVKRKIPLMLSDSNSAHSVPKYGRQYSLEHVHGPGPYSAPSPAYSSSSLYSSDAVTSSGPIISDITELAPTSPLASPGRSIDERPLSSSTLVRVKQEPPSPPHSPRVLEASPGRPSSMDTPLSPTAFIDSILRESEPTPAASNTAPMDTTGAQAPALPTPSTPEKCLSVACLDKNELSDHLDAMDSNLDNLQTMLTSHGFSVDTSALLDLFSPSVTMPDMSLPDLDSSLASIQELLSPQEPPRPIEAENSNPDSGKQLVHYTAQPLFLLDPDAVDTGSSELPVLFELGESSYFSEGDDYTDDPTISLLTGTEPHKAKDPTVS
# [8] = viability of PTEN-deleted HCT116 cells – cell-based, HCT116 PTEN knockout, dose response (AID 1047); assay type: functional;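 note: HCT116 colon tumor cells with PTEN knocked out; cells exposed to compound for 60 hours before readout; potency for loss of cell viability measured by luminescence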
# [9] = Trypanosoma cruzi growth suppression in host cells – NIH3T3 host cells, beta-gal luminescence, confirmation (AID 2044); assay type: functional, cell-based;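 note: intracellular parasites grown in NIH/3T3 mouse fibroblasts as host cells; luminescent beta-galactosidase reporter signal from transgenic T. cruzi replicating inside host cells; inhibitors lower the luminescence signal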
# [10] = biological target: C-C chemokine receptor type 6 (Homo sapiens, UniProt P51684); experiment: antagonism of CCR6 beta-arrestin recruitment – cell-based, luminescent beta-arrestin readout, dose response (AID 504728); assay type: functional
# [11] = NIH-3T3 fibroblast cytotoxicity, dose response, cytotoxicity control, cell-based, fluorescence, Alamar Blue, secondary assay (AID 2327); assay type: functional;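 note: NIH-3T3 mouse fibroblasts cultured with fluconazole at 8 µg/mL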
# [12] = test system: Streptococcus sp. 'group A'; experiment: Streptococcus pyogenes SK(-)GAS viability under kanamycin – luminescence, BacTiterGlo, confirmation, counter-screen for streptokinase expression inhibitor project, dose response (AID 1900); assay type: functional, organism-based
# Sequence of Nonstructural protein 1 (Q194T2 whole entry): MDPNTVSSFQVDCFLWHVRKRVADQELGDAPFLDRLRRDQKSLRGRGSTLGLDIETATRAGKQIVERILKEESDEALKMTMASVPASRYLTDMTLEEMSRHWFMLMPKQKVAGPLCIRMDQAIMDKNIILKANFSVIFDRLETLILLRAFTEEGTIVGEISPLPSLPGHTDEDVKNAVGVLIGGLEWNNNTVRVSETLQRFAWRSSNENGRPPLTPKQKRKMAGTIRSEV
# Sequence of C-C chemokine receptor type 6 (P51684 whole entry): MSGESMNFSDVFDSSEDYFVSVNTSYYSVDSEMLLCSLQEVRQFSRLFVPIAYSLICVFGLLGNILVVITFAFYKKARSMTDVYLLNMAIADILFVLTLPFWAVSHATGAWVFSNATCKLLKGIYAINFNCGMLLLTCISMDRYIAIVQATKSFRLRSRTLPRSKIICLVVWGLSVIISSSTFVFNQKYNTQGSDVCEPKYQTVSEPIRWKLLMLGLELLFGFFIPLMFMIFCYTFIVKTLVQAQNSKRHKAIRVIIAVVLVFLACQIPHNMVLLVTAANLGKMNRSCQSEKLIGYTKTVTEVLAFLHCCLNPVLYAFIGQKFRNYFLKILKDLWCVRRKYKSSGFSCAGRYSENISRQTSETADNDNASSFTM
# Sequence of Beta-galactosidase (Q8VNN2 whole entry): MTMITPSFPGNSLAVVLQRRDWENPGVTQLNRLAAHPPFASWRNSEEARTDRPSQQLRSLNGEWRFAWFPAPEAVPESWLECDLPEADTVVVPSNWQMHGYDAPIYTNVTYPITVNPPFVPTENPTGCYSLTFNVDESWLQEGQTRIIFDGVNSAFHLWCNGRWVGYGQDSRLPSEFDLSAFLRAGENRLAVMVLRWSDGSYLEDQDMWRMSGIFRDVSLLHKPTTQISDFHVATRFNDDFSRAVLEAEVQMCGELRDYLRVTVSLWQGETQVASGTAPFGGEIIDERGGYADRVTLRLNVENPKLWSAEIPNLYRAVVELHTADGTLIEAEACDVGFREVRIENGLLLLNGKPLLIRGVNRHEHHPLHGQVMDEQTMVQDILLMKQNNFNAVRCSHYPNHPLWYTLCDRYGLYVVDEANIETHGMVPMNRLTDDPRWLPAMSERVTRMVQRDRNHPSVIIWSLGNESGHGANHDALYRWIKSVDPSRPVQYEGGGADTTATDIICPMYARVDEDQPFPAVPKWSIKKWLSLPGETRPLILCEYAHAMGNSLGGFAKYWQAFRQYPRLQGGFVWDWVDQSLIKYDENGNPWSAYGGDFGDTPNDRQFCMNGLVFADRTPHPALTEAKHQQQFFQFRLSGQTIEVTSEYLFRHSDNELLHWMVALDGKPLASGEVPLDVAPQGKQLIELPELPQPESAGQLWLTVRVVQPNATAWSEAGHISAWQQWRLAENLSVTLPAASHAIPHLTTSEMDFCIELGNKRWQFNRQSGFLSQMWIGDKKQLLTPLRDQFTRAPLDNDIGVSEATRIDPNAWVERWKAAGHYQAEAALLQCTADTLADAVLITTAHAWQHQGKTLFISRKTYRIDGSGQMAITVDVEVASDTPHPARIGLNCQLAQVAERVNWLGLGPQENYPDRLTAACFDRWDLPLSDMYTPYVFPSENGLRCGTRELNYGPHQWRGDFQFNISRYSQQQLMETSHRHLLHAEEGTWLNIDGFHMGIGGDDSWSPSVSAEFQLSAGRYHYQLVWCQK
compound,measurement,setting,value
O=C1C(Nc2ccccc2)=C/C(=N/S(=O)(=O)c2cccs2)c2ccccc21,IC50,Beta-galactosidase,> 66.6 µM (inactive)
same,EC50,Streptococcus,4.21 µM (active)
same,EC50,[1],1.29 µM (active)
same,EC50,[2],4.63 µM (active)
same,IC50,Hexokinase HKDC1,4.88 µM (active)
same,IC50,Nonstructural protein 1,9.04 µM (active)
same,AC50,INS1,0.907 µM (active)
same,EC50,[3],1.35 µM (active)
same,IC50,[4],0.348 µM (active)
same,CC50,[5],7.43 µM (active)
same,CC50,[6],1.8 µM (active)
same,EC50,[7],1.09 µM (active)
same,EC50,[8],4.13 µM (active)
same,EC50,[9],1.14 µM (active)
same,IC50,[10],34.8 µM (inactive)
same,EC50,[11],2.66 µM (inconclusive)
same,EC50,[12],2.81 µM (active)
